Data on 13 molecules can be found in patent US5480905A, “Benzodioxane derivatives” (Chugai Seiyaku Kabushiki Kaisha, priority 1991, dated 1996).

SMILES strings stand for the structures. Where a name gives a salt, the structure may show the parent alone.

Test [1] deals with T1, serotonin 1A receptor (Rattus norvegicus, UniProt P19327).
T1 construct: the cortex and hippocampal tissue were extracted from the brain; from tissue; host or cells: brain cortex and hippocampus of 7-week-old male S.D. rats, washed membrane homogenate
T1 sequence (P19327 1-422): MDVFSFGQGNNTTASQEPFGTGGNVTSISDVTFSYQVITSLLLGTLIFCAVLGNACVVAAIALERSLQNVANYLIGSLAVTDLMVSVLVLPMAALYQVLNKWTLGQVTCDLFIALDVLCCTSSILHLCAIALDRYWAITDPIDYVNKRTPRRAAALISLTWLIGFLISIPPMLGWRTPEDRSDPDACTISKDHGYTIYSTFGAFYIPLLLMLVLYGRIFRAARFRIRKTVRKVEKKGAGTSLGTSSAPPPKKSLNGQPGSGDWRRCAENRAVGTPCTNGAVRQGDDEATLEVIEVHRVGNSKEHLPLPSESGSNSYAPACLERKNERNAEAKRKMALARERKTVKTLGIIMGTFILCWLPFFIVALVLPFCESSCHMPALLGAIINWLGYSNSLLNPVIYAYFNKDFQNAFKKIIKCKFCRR
In words: Serotonin 1A receptor binding experiment (3H-8-OH-DPAT). The following applies: rat cortex and hippocampal tissue; 0.5 nM 3H-8-OH-DPAT; IC50 in M; read-out: -logIC50 5-HT1A (converted). As for the experimental part:
(§1) Affinity for intracerebral serotonin 1A and serotonin 2 receptor was checked in accordance with the method of Hall et al. (J. Neurochem., 44, 1685-1695, 1985) and the method of Leysen et al. (Mol. Pharmacol., 21, 301-314, 1982).
(§2) Stated more specifically, the cortex and hippocampal tissue were extracted from the brain of 7-wk old S.D. line male rats, mixed with 20 volumes of Tris-HCl buffer (50 mM, pH 7.7) and homogenized with a Teflon homogenizer. Thereafter, the homogenate was centrifuged at 39800×g for 20 min and the supernatant was discarded. Forty volumes of a buffer were added to the precipitate and the mixture was homogenized with a Polytron homogenizer, with the homogenate being centrifuged under the same condition as set forth above. The same procedure was repeated two more times and the final precipitate was homogenized with 40 volumes of a buffer; thereafter, the homogenate was stored at least overnight at -80° C. On the day when binding experiments were to be conducted, the homogenate was thawed at room temperature and incubated at 37° C. for 20 min to remove the endogenous serotonin.
(§3) Thereafter, centrifugation was conducted at 39800×g for 20 min and 40 volumes of a buffer were added to the precipitate, followed by homogenization. This procedure was repeated three times; to the final precipitate, a buffer was added in 65 volumes for the case of serotonin 1A receptor and in 80 volumes for the case of serotonin 2 receptor and the mixture was homogenized in preparation for the binding experiments that are described below. All procedures of experimentation except storage in a frozen state and thawing at room temperature were conducted at 4° C. or below.
A reaction solution containing 0.5 nM (final concentration) of 3H-8-hydroxy-2-(di-n-propylamino)tetralin (8-OH-DPAT), […] and 500 μl of brain homogenate in 1.0 ml (final volume) of a buffer was incubated at 25° C. for 30 min. Thereafter, the reaction solution was filtered by rapid passage through a glass filler. The filter was washed rapidly with an ice-cooled buffer (3 ml) three times, put into a scintillation vial together with a scintillation cocktail, and left to stand overnight at 4° C. On the next day, the vial was agitated well and measurements were conducted with a scintillation counter. To determine the amount of specific binding, the amount of binding in the presence of excess unlabeled serotonin (10 μM) was subtracted from the total amount of binding. As an index for the affinity of a test compound for either receptor, the concentration at which the specific binding of ^3 H-DPAT was inhibited by 50% (IC50, M) was determined using computer software EBDA/LIGAND (Biosoft).

Test [2] deals with T2, serotonin 2 receptor (Rattus norvegicus, UniProt P14842).
T2 construct: the cortex and hippocampal tissue were extracted from the brain; from tissue; host or cells: brain cortex and hippocampus of 7-week-old male S.D. rats, washed membrane homogenate
In words: Serotonin 2 receptor binding experiment (3H-ketancerine). The following applies: rat cortex and hippocampal tissue; 0.5 nM 3H-ketancerine; IC50 in M; read-out: -logIC50 5-HT2 (converted). As for the experimental part: as §1, §2, §3
A reaction solution containing 0.5 nM (final concentration) of ^3 H-ketancerine and 500 μl of brain homogenate in 1.0 ml (final volume) of a buffer was incubated at 30° C. for 30 min. Subsequent procedures were the same as in the serotonin 1A receptor binding experiment and IC50 (M) was determined accordingly. To determine the amount of specific binding, the amount of binding in the presence of excess unlabelled methysergide ([…]) was subtracted from the total amount of binding.

Test [3] has as its system S.D. line male rats. In words: Antidepressant effect, compelled swim test (Porsolt), time over which rats remain motionless. Details: Antidepressant effect / Antidepressant effect, longevity: scale not given here. It counts as in vivo, rat. As to the method:
An antidepression test was conducted in accordance with the method of Porsolt et al. (Europ. J. Pharmacol., 47, 379-391, 1978). Stated more specifically, 7-wk old S.D. line male rats were placed in a glass cylinder (18 cm^.phi. ×40 cm^H) for 15 min. The cylinder was filled with water (25° C.) to a depth of 15 cm. Thereafter, the rats were placed in a hot environment (32° C.) for 15 min before they were returned to the cage. Twenty-four hours later, the rats were compelled again to swim in the same cylinder for 5 min and the total time over which the rats remained motionless was measured. A test drug was administered perorally to each animal 30 min before it was compelled to swim for 5 min. Antidepressant agents are known to be capable of specifically reducing the time over which the rats would remain motionless (Psyehopharmaeol., 83, 1-16, 1984, and ibid., 94, 147-160, 1988). The antidepressant effect was calculated by the following formula: [formula]
(§4) The procedure of Test Examples 2 and 3 were repeated except that test compounds were administered perorally in a dose of 10 mg/kg.
(§5) The procedures of Test Example 2 and 3 were repeated, except that test compounds were administered perorally in a dose of 20 mg/kg to check the longevity of their antianxiety and antidepressant effects for 0.5, 2 and 4 h.

Test [4] deals with S.D. line male rats. In words: Antianxiety effect, water drinking under punishment (Vogel). It counts as in vivo, rat. The arrangement: Antianxiety effect / Antianxiety effect, longevity: unit not given here. The following applies: for change in vivo at 20 mg/kg: Rattus norvegicus, po, read-out: Antianxiety effect, Efficacy. As for the experimental part: Antianxiety test was conducted in accordance with a method adapted from the method of Vogel et al. (Psychopharmacol., 21, 1-7, 1971). Stated more specifically, S.D. line male rats weighing 250-300 g were entirely kept from water for 24 h and then placed in a concrete experimental box. […] The bottom of the box was made of a stainless steel grid, from which electric shock (0.2 mA, 0.5 sec) could be applied to the limbs of rats. The test schedule was as follows: first, the rats were acclimatized to the experimental box and trained for drinking water; this was done for 3 min without electric shock. The quantity of water drunk by the rats was then measured (under non-punishment). Then, the rats were kept from drinking water for 24 h. Thereafter, the quantity of water drunk by each rat was measured (before administration of test compound) under such conditions that an electric shock was applied each time a rat drank one water drop (under punishment).Thirty minutes later, a test drug was administered perorally and after an additional 20 min, the quantity of water drunk by each rat was again measured under punishment (after administration of test compound). The quantity of water drunk by rats will decrease under punishment but it is known that the initial level can be restored by administering an antianxiety agent.
The antianxiety effect of a test compound was calculated by the following formula: [formula]
as §4, §5

The mark [5] stands for this setting: peroral 20 mg/kg, 0.5 h after administration.
The mark [6] stands for this setting: peroral 20 mg/kg, 2.0 h after administration.
The mark [7] stands for this setting: peroral 20 mg/kg, 4.0 h after administration.

T2 sequence (P14842 whole entry): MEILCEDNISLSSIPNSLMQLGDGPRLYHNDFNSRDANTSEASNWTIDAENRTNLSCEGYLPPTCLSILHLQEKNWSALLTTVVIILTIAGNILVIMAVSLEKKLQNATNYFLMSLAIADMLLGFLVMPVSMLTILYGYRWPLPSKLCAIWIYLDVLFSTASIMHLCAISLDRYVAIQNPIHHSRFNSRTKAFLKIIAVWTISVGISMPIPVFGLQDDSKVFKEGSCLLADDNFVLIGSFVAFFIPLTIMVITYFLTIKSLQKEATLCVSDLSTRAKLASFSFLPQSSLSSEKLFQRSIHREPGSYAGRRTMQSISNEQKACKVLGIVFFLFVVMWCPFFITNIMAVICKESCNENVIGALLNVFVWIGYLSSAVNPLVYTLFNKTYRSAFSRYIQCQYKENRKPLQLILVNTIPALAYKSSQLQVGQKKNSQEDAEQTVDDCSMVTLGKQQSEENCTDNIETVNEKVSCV

Take `Cc1cccc2c1OC(CNCCNC(=O)C13CC4CC(CC(C4)C1)C3)CO2` (single isomer, unassigned; (+)) [Compound 8, (+)-N-{[2-(8-methyl-1,4-benzodioxan-2ylmethyl)amino]ethyl}tricyclo[3,3,1,1^3, ^7]decane-1-carboxyamide hydrochloride]: the IC50 in test [1] is 6.31 nM; in test [2] it was 50.1 nM.
For the molecule `Cc1cccc2c1OC(CNCCNC(=O)C13CC4CC(CC(C4)C1)C3)CO2` (single isomer, unassigned; (-)) [Compound 7, (-)-N-{[2-(8-methyl-1,4-benzodioxan-2ylmethyl)amino]ethyl}tricyclo[3,3,1^3, ^7]decane-1carboxyamide hydrochloride], the results for the IC50 in test [1] and in test [2] were 0.316 nM and 15.8 nM, respectively. Further, the Antidepressant effect in test [3] (peroral 10 mg/kg) is recorded as 62.7 ± 12.4. For the same molecule, the “Antidepressant effect, longevity” value in test [3] (setting [5]) is 72.1; in test [3] (setting [6]), 76.9; in test [3] (setting [7]), 38.1. In test [4] (peroral 10 mg/kg), this molecule gave an Antianxiety effect of 45.4 ± 3.4. Also, the “Antianxiety and antidepressant effects” value in test [4] (peroral 10 mg/kg, Table 6) was “superiority”. Besides, the “Antianxiety effect, longevity” value in test [4] (setting [5]) amounted to 66.0; in test [4] (setting [6]), 51.6; in test [4] (setting [7]), 26.1.
With `C=CCN(CCNC(=O)C12CC3CC(CC(C3)C1)C2)CC1COc2cccc(C)c2O1` (stereo not shown) [Compound 9, N-{[2-(8-methyl-1,4-benzodioxan-2-ylmethyl)allylamino]ethyl}tricyclo[3,3,1^3, ^7]decane-1-carboxyamide], the IC50 in test [1] was 3.98 nM; in test [2], 1000 nM.
Take `CCCN(CCNC(=O)C12CC3CC(CC(C3)C1)C2)CC1COc2cccc(C)c2O1` (stereo not shown) [Compound 10]: the IC50 in test [1] was 10 nM; in test [2] it was 631 nM.
With `Cc1ccc(C)c2c1OCC(CNCCNC(=O)C13CC4CC(CC(C4)C1)C3)O2` (stereo not shown) [Compound 11, N-{[2-(5,8-dimethyl-1,4-benzodioxan-2-ylmethyl)amino]ethyl}tricyclo[3,3,1^3, ^7]decane-1-carboxyamide], the IC50 in test [1] is 3.98 nM; in test [2] it was 79.4 nM.
The matching figures for `CC(C)Cc1ccc2c(c1)OC(CNCCNC(=O)C13CC4CC(CC(C4)C1)C3)CO2` (stereo not shown) [Compound 13, N-{[2-(7-isobutyl-1,4-benzodioxan-2ylmethyl)amino]ethyl}tricyclo[3,3,1,1^3, ^7]decane-1-carboxyamide]: 63.1 nM and 316 nM.
Turning to `COc1ccc2c(c1)OC(CNCCNC(=O)C13CC4CC(CC(C4)C1)C3)CO2` (stereo not shown) [Compound 14, N-{[2-(7-methoxy-1,4-benzodioxan-2-ylmethyl)amino]ethyl}tricyclo[3,3,1,1^3, ^7]decane-1-carboxyamide], the IC50 in test [1] is 0.398 nM; in test [2] it was 25.1 nM. Further, the inhibition in vivo at 20 mg/kg in test [3] (Rattus norvegicus, po, 0.5 h, peroral 20 mg/kg, 30 min before swim, read-out: Antidepressant effect, Efficacy) stood at 46.9 ± 7.1%.
Consider `CC(=O)c1cccc2c1OC(CNCCNC(=O)C13CC4CC(CC(C4)C1)C3)CO2` (stereo not shown) [Compound 15, N-{[2-(8-acetyl-1,4benzodioxan-2ylmethyl)amino]ethyl}tricyclo[3,3,1,1^3, ^7]decane-1-carboxyamide], for which the IC50 is 3.16 nM in test [1] and 63.1 nM in test [2].
Turning to `O=C(NCCNCC1COc2cc(O)ccc2O1)C12CC3CC(CC(C3)C1)C2` (stereo not shown) [Compound 16, N-{[2-(6-hydroxy-1,4-benzodioxan-2ylmethyl)amino]ethyl}tricyclo[3,3,1,1^3, ^7]decane-1-carboxyamide], the IC50 in test [1] is 2.51 nM; in test [2], 158 nM. For the same molecule, the change in vivo at 20 mg/kg in test [4] (peroral 20 mg/kg) is 46.5 ± 4.7%. For the same molecule, the “Antianxiety effect” value in test [4] (peroral 20 mg/kg) is given as “almost comparable effects to WY-50324”.
For `O=C(NCCNCC1COc2ccc(O)cc2O1)C12CC3CC(CC(C3)C1)C2` (stereo not shown) [Compound 17, N-{[2-(7-hydroxy-1,4-benzodioxan-2ylmethyl)amino]ethyl}tricyclo[3,3,^3, ^7]decane-1-carboxyamide], in that order: 0.251 nM, 251 nM, 66.6 ± 8.7% and “comparable effects to MDL-73005”.
In the case of `O=C(NCCNCC1COc2c(O)cccc2O1)C12CC3CC(CC(C3)C1)C2` (stereo not shown) [Compound 19, N-{[2-(5-hydroxy-1,4-benzodioxan-2ylmethyl)amino]ethyl)tricyclo[3,3,1,1^3, ^7]decane-1-1-carboxyamide], the figures for the IC50 in test [1] and in test [2] were 6.31 nM and 1000 nM, respectively.
Take `Cc1cc(C)c2c(c1)OCC(CNCCNC(=O)C13CC4CC(CC(C4)C1)C3)O2` (stereo not shown) [Compound 20, N-{[2(6,8-dimethyl-1,4-benzodioxan-2ylmethyl)amino]ethyl)tricyclo[3,3,1,1^3, ^7]decane-1-carboxyamide]: the IC50 is > 31.6 nM in test [1] and 200 nM in test [2].
For `Cc1cccc2c1OC(CN(CCNC(=O)C13CC4CC(CC(C4)C1)C3)Cc1ccccc1)CO2` (stereo not shown) [Compound a, N-{[2-(8-methyl 1,4-benzodioxan-2-ylmethyl)benzylamino]ethyl}tricyclo[3,3,1,^3, ^7]decane-1-carboxyamide], in that order: 158 nM and > 1000 nM.
